This is an account of results in ChEMBL document CHEMBL1142982, “Discovery of N-(4-(3-amino-1H-indazol-4-yl)phenyl)-N'-(2-fluoro-5-methylphenyl)urea (ABT-869), a 3-aminoindazole-based orally active multitargeted receptor tyrosine kinase inhibitor” (J Med Chem, 2007).

Series [1] is described as follows: AUC in CD1 mouse at 10 mg/kg, po. The series is classed as ADME, organism-based. The arrangement: dose 10 mg/kg, route oral. Particulars: plasma.
Series [2] can be described thus: Oral bioavailability in CD1 mouse. The class given is ADME, organism-based. The following applies: in vivo.
Series [3] can be described thus: Stability in human hepatocyte assessed as metabolic turnover after 6 hrs. The series is classed as ADME, cell-based. The following applies: hepatocytes, read-out: Stability.
The nature of series [4]: Half life in Sprague-Dawley rat at 5 mg/kg, iv. The class given is ADME, organism-based. Particulars: in vivo. Also noted: dose 5 mg/kg, route intravenous.
Series [5] in a line: Volume of distribution in Sprague-Dawley rat at 5 mg/kg, iv. The series is classed as ADME, organism-based. Also noted: dose 5 mg/kg, route intravenous. The following applies: in vivo, read-out: Vdss.
The nature of series [6]: AUC in Sprague-Dawley rat at 5 mg/kg, po. The series is classed as ADME, organism-based. The arrangement: dose 5 mg/kg, route oral. The following applies: plasma.
Series [7] is described as follows: Oral bioavailability n Sprague-Dawley rat at 5 mg/kg, po. The series is classed as ADME, organism-based. Particulars: in vivo.
The nature of series [8]: Half life in cynomolgus monkey at […], iv. The series is classed as ADME, organism-based, Macaca fascicularis. The arrangement: dose 2.5 mg/kg, route intravenous. Particulars: in vivo.
Series [9] in a line: Volume of distribution in cynomolgus monkey at […], iv. The class given is ADME, organism-based, Macaca fascicularis. Also noted: dose 2.5 mg/kg, route intravenous. Particulars: in vivo, read-out: Vdss.
Series [10] can be described thus: Clearance in cynomolgus monkey at […], iv. The class given is ADME, organism-based, Macaca fascicularis. Also noted: dose 2.5 mg/kg, route intravenous. The following applies: in vivo.
Series [11] in a line: AUC in cynomolgus monkey at […], po. The arrangement: dose 2.5 mg/kg, route oral. The series is classed as ADME, organism-based, Macaca fascicularis. Particulars: plasma.
Series [12] in a line: Oral bioavailability in cynomolgus monkey at […], po. The class given is ADME, organism-based, Macaca fascicularis. Particulars: in vivo.
The nature of series [13]: Half life in Beagle dog at […], iv. The class given is ADME, organism-based, Canis lupus familiaris. Also noted: dose 2.5 mg/kg, route intravenous. Particulars: in vivo.
Series [14] is described as follows: Volume of distribution in Beagle dog at […]. The series is classed as ADME, organism-based, Canis lupus familiaris. Also noted: dose 2.5 mg/kg. Particulars: in vivo, read-out: Vdss.
The nature of series [15]: Clearance in Beagle dog at […], iv. The arrangement: dose 2.5 mg/kg, route intravenous. Particulars: in vivo. The class given is ADME, organism-based, Canis lupus familiaris.
Series [16] can be described thus: AUC in Beagle dog at […], po. The class given is ADME, organism-based, Canis lupus familiaris. Also noted: dose 2.5 mg/kg, route oral. The following applies: plasma.
The nature of series [17]: Oral bioavailability in Beagle dog at […], po. The following applies: in vivo. The class given is ADME, organism-based, Canis lupus familiaris.
Series [18] is described as follows: Lipophilicity, log D at pH 7.4. The series is classed as physicochemical. Particulars: buffer.
Series [19] is described as follows: Aqueous solubility at pH 7 at room temperature. The following applies: buffer. The series is classed as physicochemical.
A short description of series [20]: Stability in mouse hepatocyte assessed as metabolic turnover after 6 hrs. The following applies: hepatocytes. The class given is ADME, cell-based.
Series [21] in a line: Stability in dog hepatocyte assessed as metabolic turnover after 6 hrs. The series is classed as ADME, cell-based, Canis lupus familiaris. The following applies: hepatocytes.
The nature of series [22]: Stability in monkey hepatocyte assessed as metabolic turnover after 6 hrs. Particulars: rhesus monkey, hepatocytes. The class given is ADME, cell-based, Macaca mulatta.
The nature of series [23]: Clearance in Sprague-Dawley rat at 5 mg/kg, iv. Particulars: in vivo.

≈ marks a conversion by molar mass, not a printed value.

As a reminder, the AUC is concentration integrated over time. What is called bioavailability is dose-corrected exposure relative to a reference, in per cent. Turning to `Cc1cccc(NC(=O)Nc2ccc(-c3cccc4[nH]nc(N)c34)cc2)c1`, the AUC in series [1] is 6.5 µM·h. This compound also displayed a bioavailability in series [2] of 38%.
`Cc1cccc(NC(=O)Nc2ccc(-c3ccc(OCCN4CCOCC4)c4[nH]nc(N)c34)cc2)c1` gave an AUC in series [1] of 1 µM·h. Moreover, the bioavailability in [2] was determined as 20%.
In series [1], `Cc1cc(NC(=O)Nc2ccc(-c3cccc4[nH]nc(N)c34)cc2)ccc1F` yielded an AUC of 10.9 µM·h. In series [2], this compound returned a bioavailability of 66%.
The like results for `Nc1n[nH]c2cccc(-c3ccc(NC(=O)Nc4cccc(Cl)c4)cc3)c12` were, in that order, 15 µM·h and 50%.
In series [1], `Cc1cccc(NC(=O)Nc2ccc(-c3cccc4c3c(N)nn4C)cc2)c1` gave an AUC of 19.8 µM·h. This compound displayed a bioavailability in [2] of 89%.
The half-life is the time needed for the level to fall by half in the phase considered. As a reminder, the clearance is the rate of elimination divided by the concentration. The term logD denotes the decadic logarithm of the distribution of all forms, ionised or not, between an organic phase and buffer at a given pH. For orientation: Solubility means how much of the substance goes into solution per volume. As for `Cc1ccc(F)c(NC(=O)Nc2ccc(-c3cccc4[nH]nc(N)c34)cc2)c1` [LINIFANIB], in series [3], the metabolised at 6 h worked out at 91%. Further, the AUC worked out at 24.5 µM·h in series [1], 6800 ng·h/mL in [6], 600 ng·h/mL in series [11] and 1500 ng·h/mL in series [16]. Moreover, the bioavailability in series [2] was determined as 100%; in series [7], 27%; in [12], 10.6%; in series [17], 47%. The half-life in [4] was 3.6 h; in [8], 3.1 h; in series [13] it was 2 h. Moreover, the Vd in series [5] stood at 1.1 L/kg; in series [9], 2.2 L/kg; in series [14] it was 1.2 L/kg. Further, the clearance in series [10] was found to be 8.2 mL/min/kg; in [15], 7.2 mL/min/kg; in series [23], 3.3 mL/min/kg. The same compound came in with a logD in series [18] of 4.2. Also, the Solubility in [19] was found to be 0.027 µg/mL (≈ 0.0719 µM). The parent remaining at 6 h in series [20], in series [21] and in series [22] was 91% in each case.
